Assay results: patent publication US20160375006A1, “USES OF PARALOG-SELECTIVE INHIBITORS OF GSK3 KINASES” (priority 2012, published 2016)

Tests used:
[1] = target: T1, HIPK4 (Homo sapiens, UniProt Q8NE63); experiment: Carna kinase panel; format: biochemical
T1 construct: purchased Carna Biosciences
Procedure: (§1) This was completed utilizing one of two assays depending on the kinase being examined.
(§2) A solution of IMAP binding reagent (IMAP Screening Express kit; Molecular Devices) (60 μL) was added to each well and incubated for 30 minutes.
(§3) A solution of termination buffer (QuickScout Screening assist MSA; Carna Biosciences) (60 μL) was added to each well. The entire reaction mixture was then applied to a LabChip3000 system (Caliper Life Science) and the product and substrate peptide peaks were separated and quantified.

[2] = target: T2, PKR (Homo sapiens, UniProt P19525); experiment: Carna kinase panel; format: biochemical
T2 construct: purchased Carna Biosciences
Procedure: as §1, §2, §3

[3] = target: T3, Erk5 (Homo sapiens, UniProt Q13164); experiment: Carna kinase panel; format: biochemical
T3 construct: purchased Carna Biosciences
Procedure: as §1, §2, §3

[4] = target: EPHA6 (Homo sapiens, UniProt Q9UF33)
Procedure: as §1, §2, §3

[5] = target: CK1α (Homo sapiens, UniProt P48729)
Procedure: as §1, §3
(§4) The assay utilized was identical to that of the single point inhibitory activity determination (MSA) but run in dose response.

[6] = target: TRKB (Homo sapiens, UniProt Q16620)
Procedure: as §1, §2, §3
(§5) The assay utilized was identical to that of the single point inhibitory activity determination (MSA) but run in dose response. […] A solution of termination buffer (QuickScout Screening assist MSA; Carna Biosciences) (60 μL) was added to each well. The entire reaction mixture was then applied to a LabChip3000 system (Caliper Life Science) and the product and substrate peptide peaks were separated and quantified.

[7] = target: MAP2K6_Cascade (Homo sapiens, UniProt P52564)
Procedure: as §1, §2, §3, §5

[8] = target: JAK3 (Homo sapiens, UniProt P52333)
Sequence of JAK3 (P52333 whole entry): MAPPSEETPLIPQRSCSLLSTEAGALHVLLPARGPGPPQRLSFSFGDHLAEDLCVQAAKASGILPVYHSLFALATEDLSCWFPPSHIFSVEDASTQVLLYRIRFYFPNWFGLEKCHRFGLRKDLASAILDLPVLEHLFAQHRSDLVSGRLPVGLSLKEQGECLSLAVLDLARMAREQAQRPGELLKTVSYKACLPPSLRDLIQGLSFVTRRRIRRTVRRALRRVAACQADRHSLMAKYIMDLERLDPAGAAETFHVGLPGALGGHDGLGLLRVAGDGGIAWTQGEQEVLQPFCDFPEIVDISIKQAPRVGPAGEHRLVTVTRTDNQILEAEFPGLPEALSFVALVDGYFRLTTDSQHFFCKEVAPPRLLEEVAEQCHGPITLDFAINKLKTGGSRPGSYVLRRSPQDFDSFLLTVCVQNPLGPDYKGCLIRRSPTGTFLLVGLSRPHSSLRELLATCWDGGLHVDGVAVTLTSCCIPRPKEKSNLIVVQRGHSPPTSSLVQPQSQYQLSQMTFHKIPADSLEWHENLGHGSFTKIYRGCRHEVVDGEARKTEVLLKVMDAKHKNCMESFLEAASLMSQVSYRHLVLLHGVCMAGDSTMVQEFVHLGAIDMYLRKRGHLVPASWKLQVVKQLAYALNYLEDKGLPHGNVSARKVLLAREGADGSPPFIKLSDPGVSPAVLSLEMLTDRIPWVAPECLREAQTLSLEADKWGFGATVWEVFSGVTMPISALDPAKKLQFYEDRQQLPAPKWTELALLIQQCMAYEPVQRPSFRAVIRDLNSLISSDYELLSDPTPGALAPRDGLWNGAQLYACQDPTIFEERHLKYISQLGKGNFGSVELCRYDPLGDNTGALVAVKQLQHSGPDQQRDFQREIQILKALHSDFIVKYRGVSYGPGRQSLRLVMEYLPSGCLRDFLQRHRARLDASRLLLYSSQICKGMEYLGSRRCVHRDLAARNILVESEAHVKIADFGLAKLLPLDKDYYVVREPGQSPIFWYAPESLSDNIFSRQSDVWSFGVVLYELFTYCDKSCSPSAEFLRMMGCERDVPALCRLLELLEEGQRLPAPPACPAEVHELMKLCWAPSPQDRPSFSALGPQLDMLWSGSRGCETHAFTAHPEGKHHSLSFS
Procedure: as §1, §2, §3, §5

[9] = target: TYRO3 (Homo sapiens, UniProt Q06418)
Procedure: as §1, §2, §3

[10] = target: PYK2 (Homo sapiens, UniProt Q14289)
Procedure: as §1, §2, §3

[11] = target: NEK9 (Homo sapiens, UniProt Q8TD19)
Procedure: as §1, §2, §3, §5

[12] = target: PKACα (Homo sapiens, UniProt P17612)
Procedure: as §1, §2, §3, §5

[13] = target: MLK2_Cascade (Homo sapiens, UniProt Q02779)
Procedure: as §1, §2, §3, §5

[14] = target: BTK (Homo sapiens, UniProt Q06187)
Procedure: as §1, §2, §3, §5

[15] = target: HER4 (Homo sapiens, UniProt Q15303)
Procedure: as §1, §2, §3

[16] = target: MAP2K2_Cascade (Homo sapiens, UniProt P36507)
Procedure: as §1, §2, §3

[17] = target: PIM3 (Homo sapiens, UniProt Q86V86)
Procedure: as §1, §2, §3

[18] = target: ALK (Homo sapiens, UniProt Q9UM73)
Procedure: as §1, §2, §3

[19] = test system: MAP3K2_Cascade
Procedure: as §1, §2, §3, §5

[20] = target: PDGFRα(T674I) (Homo sapiens, UniProt P16234, T674I)
Procedure: as §1, §2, §3, §5

[21] = target: EGFR (Homo sapiens, UniProt P00533)
Procedure: as §1, §2, §3, §5

[22] = target: TIE2 (Homo sapiens, UniProt Q02763)
Procedure: as §1, §2, §3, §5

[23] = target: PKCα (Homo sapiens, UniProt P17252)
Procedure: as §1, §2, §3, §5

[24] = target: DLK_Cascade (Homo sapiens, UniProt Q12852)
Procedure: as §1, §2, §3, §5

[25] = target: BRSK1 (Homo sapiens, UniProt Q8TDC3)
Procedure: as §1, §2, §3, §5

[26] = target: EGFR(L861Q) (Homo sapiens, UniProt P00533, L861Q)
Procedure: as §1, §2, §3, §5

[27] = target: p70S6Kβ (Homo sapiens, UniProt Q9UBS0)
Procedure: as §1, §2, §3, §5

[28] = target: SRPK2 (Homo sapiens, UniProt P78362)
Sequence of SRPK2 (P78362 whole entry): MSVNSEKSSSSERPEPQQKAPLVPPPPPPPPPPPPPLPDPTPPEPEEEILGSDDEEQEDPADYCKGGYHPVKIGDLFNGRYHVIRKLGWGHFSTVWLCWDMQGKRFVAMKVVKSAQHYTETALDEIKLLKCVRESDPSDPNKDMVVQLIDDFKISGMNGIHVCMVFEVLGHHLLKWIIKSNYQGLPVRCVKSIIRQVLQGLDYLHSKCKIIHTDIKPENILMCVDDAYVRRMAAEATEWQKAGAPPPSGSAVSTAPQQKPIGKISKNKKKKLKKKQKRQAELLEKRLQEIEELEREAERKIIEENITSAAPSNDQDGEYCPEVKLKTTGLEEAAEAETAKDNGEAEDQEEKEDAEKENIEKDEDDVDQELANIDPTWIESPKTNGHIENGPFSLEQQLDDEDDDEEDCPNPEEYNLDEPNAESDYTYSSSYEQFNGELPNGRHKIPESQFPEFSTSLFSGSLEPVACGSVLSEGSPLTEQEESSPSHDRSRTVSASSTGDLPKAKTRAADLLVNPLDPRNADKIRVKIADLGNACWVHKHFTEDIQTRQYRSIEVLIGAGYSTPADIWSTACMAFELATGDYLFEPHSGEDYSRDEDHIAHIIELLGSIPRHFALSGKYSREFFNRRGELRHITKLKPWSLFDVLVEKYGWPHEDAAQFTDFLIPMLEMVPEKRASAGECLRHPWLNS
Procedure: as §2, §3, §5

[29] = target: EPHA2 (Homo sapiens, UniProt P29317)
Sequence of EPHA2 (P29317 24-976): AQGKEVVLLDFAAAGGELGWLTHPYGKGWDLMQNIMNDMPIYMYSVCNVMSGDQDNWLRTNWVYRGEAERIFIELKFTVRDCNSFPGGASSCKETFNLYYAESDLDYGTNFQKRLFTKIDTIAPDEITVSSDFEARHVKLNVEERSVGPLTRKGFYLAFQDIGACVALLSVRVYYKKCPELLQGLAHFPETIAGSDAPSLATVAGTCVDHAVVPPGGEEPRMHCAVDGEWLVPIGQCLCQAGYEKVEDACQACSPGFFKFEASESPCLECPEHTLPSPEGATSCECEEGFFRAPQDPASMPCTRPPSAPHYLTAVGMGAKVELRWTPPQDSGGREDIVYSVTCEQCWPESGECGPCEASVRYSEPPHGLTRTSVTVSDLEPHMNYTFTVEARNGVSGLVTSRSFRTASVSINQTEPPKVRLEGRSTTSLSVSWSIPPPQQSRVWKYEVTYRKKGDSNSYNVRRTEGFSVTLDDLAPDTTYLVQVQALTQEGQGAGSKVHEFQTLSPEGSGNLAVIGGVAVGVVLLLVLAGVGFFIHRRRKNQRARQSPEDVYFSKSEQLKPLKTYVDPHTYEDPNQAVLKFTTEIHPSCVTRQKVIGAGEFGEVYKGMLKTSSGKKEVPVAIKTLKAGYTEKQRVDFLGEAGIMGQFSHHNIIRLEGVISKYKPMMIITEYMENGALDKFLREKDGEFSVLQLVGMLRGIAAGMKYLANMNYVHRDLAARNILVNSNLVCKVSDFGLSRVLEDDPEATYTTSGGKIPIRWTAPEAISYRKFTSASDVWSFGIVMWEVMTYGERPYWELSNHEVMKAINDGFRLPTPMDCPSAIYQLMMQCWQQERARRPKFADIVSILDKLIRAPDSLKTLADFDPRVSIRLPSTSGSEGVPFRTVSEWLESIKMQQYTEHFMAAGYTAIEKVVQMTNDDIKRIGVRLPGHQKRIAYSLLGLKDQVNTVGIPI
Procedure: as §1, §2, §3, §5

[30] = target: FGFR1(V561M) (Homo sapiens, UniProt P11362, V561M)
Procedure: as §1, §2, §3, §5

[31] = target: TSSK2 (Homo sapiens, UniProt Q96PF2)
Procedure: as §1, §2, §3

[32] = target: WNK1 (Homo sapiens, UniProt Q9H4A3)
Source text: as §1, §4

[33] = target: ACK (Homo sapiens, UniProt Q07912)
Procedure: as §1, §2, §3, §5

[34] = target: PKCε (Homo sapiens, UniProt Q02156)
Procedure: as §1, §2, §3, §5

[35] = target: PRKX (Homo sapiens, UniProt P51817)
Procedure: as §1, §2, §3, §5

[36] = target: PKCβ2 (Homo sapiens, UniProt P05771)
Procedure: as §1, §2, §3

[37] = target: MNK2 (Homo sapiens, UniProt Q9HBH9)
Procedure: as §1, §2, §3

[38] = target: QIK (Homo sapiens, UniProt Q9H0K1)
Procedure: as §1, §2, §3, §5

[39] = target: AKT3 (Homo sapiens, UniProt Q9Y243)
Procedure: as §1, §2, §3, §5

[40] = target: EPHB1 (Homo sapiens, UniProt P54762)
Sequence of EPHB1 (P54762 18-984): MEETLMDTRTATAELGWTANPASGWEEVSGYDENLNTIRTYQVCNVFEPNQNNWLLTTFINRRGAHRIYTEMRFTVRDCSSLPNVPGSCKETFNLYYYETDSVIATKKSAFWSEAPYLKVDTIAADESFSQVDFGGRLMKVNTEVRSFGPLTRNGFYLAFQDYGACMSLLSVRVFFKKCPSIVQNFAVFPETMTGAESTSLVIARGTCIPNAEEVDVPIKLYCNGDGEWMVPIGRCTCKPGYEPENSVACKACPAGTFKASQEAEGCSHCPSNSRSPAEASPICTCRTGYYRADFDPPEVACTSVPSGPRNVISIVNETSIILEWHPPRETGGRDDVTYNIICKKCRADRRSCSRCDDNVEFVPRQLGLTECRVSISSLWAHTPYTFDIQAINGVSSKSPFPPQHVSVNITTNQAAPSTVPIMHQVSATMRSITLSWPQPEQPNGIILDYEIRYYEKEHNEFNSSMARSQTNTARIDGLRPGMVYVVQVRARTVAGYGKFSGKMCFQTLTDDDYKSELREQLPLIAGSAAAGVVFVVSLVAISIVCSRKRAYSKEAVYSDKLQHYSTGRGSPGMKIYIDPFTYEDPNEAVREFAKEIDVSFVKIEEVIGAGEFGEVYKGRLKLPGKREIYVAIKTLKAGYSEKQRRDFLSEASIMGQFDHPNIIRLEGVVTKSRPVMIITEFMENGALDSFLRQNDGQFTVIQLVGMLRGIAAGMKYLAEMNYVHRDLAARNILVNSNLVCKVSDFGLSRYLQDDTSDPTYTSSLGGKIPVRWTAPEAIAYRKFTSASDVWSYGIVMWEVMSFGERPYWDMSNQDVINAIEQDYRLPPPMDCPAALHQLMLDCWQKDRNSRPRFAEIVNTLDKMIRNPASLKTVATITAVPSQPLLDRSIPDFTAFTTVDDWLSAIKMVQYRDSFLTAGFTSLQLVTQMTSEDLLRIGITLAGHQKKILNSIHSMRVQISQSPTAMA
Procedure: as §1, §2, §3, §5

[41] = target: PKD2 (Homo sapiens, UniProt Q9BZL6)
Procedure: as §1, §2, §3, §5

T2 sequence (P19525 whole entry): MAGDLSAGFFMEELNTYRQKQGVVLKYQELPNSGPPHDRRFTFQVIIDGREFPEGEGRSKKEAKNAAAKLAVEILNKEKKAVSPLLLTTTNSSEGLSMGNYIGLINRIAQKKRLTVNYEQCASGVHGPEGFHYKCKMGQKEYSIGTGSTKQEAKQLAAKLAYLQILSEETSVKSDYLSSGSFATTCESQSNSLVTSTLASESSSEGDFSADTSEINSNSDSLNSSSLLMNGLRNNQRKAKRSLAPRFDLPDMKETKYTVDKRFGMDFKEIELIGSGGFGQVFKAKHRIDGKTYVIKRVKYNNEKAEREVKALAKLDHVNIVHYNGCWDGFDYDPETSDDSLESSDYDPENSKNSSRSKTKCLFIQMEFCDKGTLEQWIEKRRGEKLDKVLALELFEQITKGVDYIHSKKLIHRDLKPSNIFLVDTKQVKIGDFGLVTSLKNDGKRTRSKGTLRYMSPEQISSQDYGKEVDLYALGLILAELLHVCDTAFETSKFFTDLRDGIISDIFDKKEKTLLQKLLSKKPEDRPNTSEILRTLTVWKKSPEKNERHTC

CC[C@@]1(c2ccccc2)C2=C(CC(C)(C)CC2=O)Nc2n[nH]cc21 [BRD0705]
% Inhibition at 10 μM [1]: 2.1% | % Inhibition at 10 μM [2]: 2.0% | % Inhibition at 10 μM [3]: −7.9% | % Inhibition at 10 μM [4]: 7.4% | % Inhibition at 10 μM [5]: 6.0% | % Inhibition at 10 μM [6]: 4.5% | % Inhibition at 10 μM [7]: 4.2% | % Inhibition at 10 μM [8]: 4.1% | % Inhibition at 10 μM [9]: 3.8% | % Inhibition at 10 μM [10]: 3.5% | % Inhibition at 10 μM [11]: 3.5% | % Inhibition at 10 μM [12]: 3.4% | % Inhibition at 10 μM [13]: 2.1% | % Inhibition at 10 μM [14]: 2.1% | % Inhibition at 10 μM [15]: 1.3% | % Inhibition at 10 μM [16]: 1.3% | % Inhibition at 10 μM [17]: 1.2% | % Inhibition at 10 μM [18]: 1.1% | % Inhibition at 10 μM [19]: 1.0% | % Inhibition at 10 μM [20]: 0.5% | % Inhibition at 10 μM [21]: 0.3% | % Inhibition at 10 μM [22]: 0.3% | % Inhibition at 10 μM [23]: −0.5% | % Inhibition at 10 μM [24]: −1.1% | % Inhibition at 10 μM [25]: −1.6% | % Inhibition at 10 μM [26]: −1.8% | % Inhibition at 10 μM [27]: −2.1% | % Inhibition at 10 μM [28]: −2.5% | % Inhibition at 10 μM [29]: −2.6% | % Inhibition at 10 μM [30]: −3.2% | % Inhibition at 10 μM [31]: −3.4% | % Inhibition at 10 μM [32]: −4.2% | % Inhibition at 10 μM [33]: −4.5% | % Inhibition at 10 μM [34]: −4.5% | % Inhibition at 10 μM [35]: −4.7% | % Inhibition at 10 μM [36]: −5.7% | % Inhibition at 10 μM [37]: −5.9% | % Inhibition at 10 μM [38]: −6.4% | % Inhibition at 10 μM [39]: −8.3% | % Inhibition at 10 μM [40]: −9.9% | % Inhibition at 10 μM [41]: −22.1%

CC(C)(C)Cc1[nH]nc2c1[C@](C)(c1ccccc1)C1=C(CC(C)(C)CC1=O)N2 [BRD3731]
% Inhibition 10 μM ([1]; 10 μM): 15.9% | % Inhibition 10 μM ([2]; 10 μM): 3.1% | % Inhibition 10 μM ([3]; 10 μM): 4.5% | % Inhibition 10 μM ([4]; 10 μM): 9.6% | % Inhibition 10 μM ([5]; 10 μM): −5.6% | % Inhibition 10 μM ([6]; 10 μM): 11.0% | % Inhibition 10 μM ([7]; 10 μM): 3.3% | % Inhibition 10 μM ([8]; 10 μM): 7.8% | % Inhibition 10 μM ([9]; 10 μM): −3.5% | % Inhibition 10 μM ([10]; 10 μM): 5.3% | % Inhibition 10 μM ([11]; 10 μM): 2.9% | % Inhibition 10 μM ([12]; 10 μM): 17.1% | % Inhibition 10 μM ([13]; 10 μM): 0.3% | % Inhibition 10 μM ([14]; 10 μM): 0.3% | % Inhibition 10 μM ([15]; 10 μM): 6.5% | % Inhibition 10 μM ([16]; 10 μM): −0.4% | % Inhibition 10 μM ([17]; 10 μM): 13.1% | % Inhibition 10 μM ([18]; 10 μM): 3.0% | % Inhibition 10 μM ([19]; 10 μM): −0.7% | % Inhibition 10 μM ([20]; 10 μM): 3.1% | % Inhibition 10 μM ([21]; 10 μM): 10.0% | % Inhibition 10 μM ([22]; 10 μM): 6.7% | % Inhibition 10 μM ([23]; 10 μM): 8.1% | % Inhibition 10 μM ([24]; 10 μM): 0.9% | % Inhibition 10 μM ([25]; 10 μM): 7.9% | % Inhibition 10 μM ([26]; 10 μM): 2.7% | % Inhibition 10 μM ([27]; 10 μM): 12.6% | % Inhibition 10 μM ([28]; 10 μM): 6.4% | % Inhibition 10 μM ([29]; 10 μM): 3.2% | % Inhibition 10 μM ([30]; 10 μM): 0.3% | % Inhibition 10 μM ([31]; 10 μM): 3.8% | % Inhibition 10 μM ([32]; 10 μM): −1.0% | % Inhibition 10 μM ([33]; 10 μM): −1.3% | % Inhibition 10 μM ([34]; 10 μM): 1.8% | % Inhibition 10 μM ([35]; 10 μM): −0.2% | % Inhibition 10 μM ([36]; 10 μM): 3.8% | % Inhibition 10 μM ([37]; 10 μM): −5.6% | % Inhibition 10 μM ([38]; 10 μM): −4.1% | % Inhibition 10 μM ([39]; 10 μM): −6.4% | % Inhibition 10 μM ([40]; 10 μM): 2.7% | % Inhibition 10 μM ([41]; 10 μM): 17.2%
